The source of these data is patent US5010059A, “Pharmaceutical products and lactosyl compounds” (Solco Basel AG, priority 1987, dated 1991).

Where “and” joins values, the source holds several entries; their conditions need not be identical. Equal entries are not always repeated. Where two headings read alike, the source gives them in different places.

For data set [1], the system named is GalN/endotoxin hepatitis. As to conditions: *p ≤ 0.01, **p ≤ 0.001; indomethacin 9 mg/kg; diethylcarbamazine 78 mg/kg i.p. every 45 minutes between 0 and 6 hours; dexamethasone 200 μg/kg i.p.; cited from earlier work.
Data set [2] is described as follows: acute toxicity testing. The class given is in vivo. More on the design: Weight on May 10, 1988 / Weight on May 20, 1988: unit not given here. As to the method: Two groups each of ten mice were observed and weighed each day for 10 days. The animals in the control group each received intraperitoneal administration of 500 μl of a 5 mmol/l solution of Pluronic ® F 68 (manufactured by BASF Wyandotte, Erbsloh/FRG) in physiological saline, while those in the test group received 500 μl of a solution of 6 mg of the compound named above in 6 ml of Pluronic® F 68.

For data set [3], the system named is GalN/endotoxin hepatitis. Put plainly: GalN/endotoxin hepatitis, cytoprotective effect of the compounds. The class given is in vivo, albino mice of the NMRI strain. As to conditions: 200 μg/kg i.p. 1 hour before GalN/endotoxin; serum 9 hours later; n.s. not significant, *p ≤ 0.05, **p ≤ 0.01. From the text:
In order to gain a deeper insight into the pharmacological properties of the compounds of the formula I, they have been examined for any cytoprotective effects they may have. The cytoprotective effect can be shown, inter alia, by the method described by A. Wendel and G. Tiegs in Biochemical Pharmacology 35 (1986), 2115-2118. This is based on the impairment of liver function as a consequence of sensitization of the liver due to administration of D-galactosamine and simultaneous treatment with endotoxins.
D-galactosamine (abbreviated to GalN) causes in animals liver damage which is regarded as a model for human viral hepatitis. The mechanism is assumed to be an accumulation of toxic galactosamine derivatives in the liver, which results in a diminution in the biosynthesis of macromolecules such as ribonucleic acids, proteins, glycoproteins and glycogens. These changes in the metabolism may in turn result in cell damage or even death of cells in the liver. The extent of liver damage can be determined by the increase in certain liver enzymes (sorbitol dehydrogenase SDH, serum glutamic-oxalic transaminase SGOT, serum glutamic-pyruvic transaminase SGPT) in the blood and by histology of the liver.
The test is carried out as follows.
Male albino mice of the NMRI strain are pretreated intraperitoneally with 200 μg/kg test substance and, 1 hour thereafter, treated intraperitoneally with 700 mg/kg D-galactosamine and 33 μg/kg endotoxins. 9 hours later, blood is removed by cardiac puncture, and the enzymatic activity in the blood serum is determined according to H. U. Bergmeyer [Methods in Enzymatic Analysis, 3rd edition (1985), volume III]. In this experimental model, the […] (Kupffer cells) actually function as immobilized macrophages.
The content of the liver enzymes SDH, SGOT and SGPT in the serum is expressed in international units (IU) for the enzyme activity; 1 IU=1 μmol of substrate converted/minute in one liter.

Data set [4] concerns cutaneous necrosis. Put plainly: skin flap test (action promoting healing). Conditions: for Area of surviving skin in mm^2 / Area of the necrotic skin in mm^2 / Area of the skin flap / Area of surviving skin in % / Area of the necrotic skin in %: 1.5 ml i.p. daily for 8 days; for Area of surviving skin in mm^2 / Area of the necrotic skin in mm^2 / Area of the skin flap: 5% concentration; for Area of surviving skin in % / Area of the necrotic skin in %: % of skin flap; for Action of the compound in %: increase in area of surviving skin as percentage compared with control. The data set is classed as in vivo, Wistar rats. The source says:
Various pharmacological tests can be used to test for any therapeutically beneficial effect on damaged cells and tissues. An action promoting healing can be estimated and measured, in particular, by using the so-called skin flap test; the test is based on the development of a cutaneous necrosis and the inhibition thereof as a consequence of the action of the test substance.
Male Wistar rats of body weight 220-240 g in groups of 8 animals for each value which is to be determined are anesthetized with Nembutal (50 mg/kg, i.p.). A 1×3 cm skin flap is cut out, using a scalpel, from the back, is thoroughly washed and is returned to the original site and is sutured. The test animals are given the compound which is to be tested, in 5% concentration in aqueous solution (containing 0.2% ethanol and 1% polyethylene glycol of molecular weight 20,000--or Carbowax ®20; in each case 1.5 ml intraperitoneal), each day for 8 days; the control animals receive only the aqueous medium. Each day drawings are made of the skin flaps on the scale 1:1, with the necrotic sites being colored black. The animals are sacrificed after 8 days, and the drawings are evaluated using a Biotran apparatus, and the total area of the necrotic sites is measured in mm^2. The action promoting healing is expressed as the increase in the area of surviving skin as a percentage compared with the control.

As to `COc1ccc2c(c1)c(CC(=O)O)c(C)n2C(=O)c1ccc(Cl)cc1` [Indomethacin], in data set [1], the SGOT is listed as 480 ± 475 and the SGPT is listed as 730 ± 1,040.

Turning to `CCCCCCCCCCCCC/C=C/[C@H](O)[C@@H](CO[C@@H]1O[C@H](CO)[C@@H](O[C@@H]2O[C@H](CO)[C@H](O)[C@H](O)[C@H]2O)[C@H](O)[C@H]1O)NC(=O)CCCCCCCCCCCCCCC` [Lac(Pal)-L-Sph, (2R,3S,4E)-1-[4-0-(8-D-galactopyranosyl) -β-D-gluco-pyranosyloxy]-2-hexadecanoylamino-4-octadecen-3-ol], the “special reactions immediately after the injection” value in data set [2] (about 20 mg/kg i.p.) is given as “nor were any special reactions immediately after the injection”. In data set [2] (about 20 mg/kg i.p., during the experiment and days which followed), the toxic signs entry was “no toxic signs”. In data set [2] (about 20 mg/kg i.p., test versus control group), the “weight gain versus control group” value is on record as “strictly comparable in respect of weight gain”. The mortality entry in data set [2] (mouse, in vivo) was “No mortality”. Also, the “Weight on May 20, 1988” value in data set [2] (test group, individual animals, 10 days, about 20 mg/kg i.p.) was 35.7 and 33.0 and 35.0 and 34.9 and 34.4 and 39.9 and 28.8 and 34.0 and 30.5 and 31.9. Further, in data set [2] (test group, individual animals, May 10 to May 20, about 20 mg/kg i.p.), the Weight difference entry is “+6.6 g and +6.0 g and +7.3 g and +7.0 g and +7.7 g and +9.7 g and +4.3 g and +6.4 g and +3.9 g and +5.6 g”. The “Weight on May 10, 1988” value in data set [2] (test group, individual animals, before/at i.p. dosing (about 20 mg/kg)) was 29.1 and 27.0 and 27.7 and 27.9 and 26.7 and 30.2 and 24.5 and 27.6 and 26.6 and 26.3. In data set [3], this compound gave an SDH of 80 IU/liter, an SGOT of 120 ± 80 IU/liter and an SGPT of 80 ± 20 IU/liter. For the same compound, in data set [4], the “Area of surviving skin in mm^2” value amounted to 182.8 ± 11.3 mm^2, the “Area of the necrotic skin in mm^2” value turned out to be 112.7 ± 13.3 mm^2, the “Area of the skin flap” value amounted to 295.5 ± 6.4 mm^2 and the “Area of surviving skin in %” value stood at 62.3%. In addition, in data set [4], the “Area of the necrotic skin in %” value is listed as 37.7% and the “Action of the compound in %” value is recorded as “+43.9%”.

Turning to `CCN(CC)C(=O)N1CCN(C)CC1` [Diethylcarbamazine], in data set [1], the SGOT is on record as 270 ± 90 and the SGPT is 290 ± 180.

For `C[C@@H]1C[C@H]2[C@@H]3CCC4=CC(=O)C=C[C@]4(C)[C@@]3(F)[C@@H](O)C[C@]2(C)[C@@]1(O)C(=O)CO` [Dexamethasone], in data set [1], the SGOT is given as 140 ± 100 and the SGPT is given as 100 ± 60.

As to `CCCCCCCCCCCCCC=CC(O)C(COC1OC(CO)C(O)C(O)C1O)NC(=O)CCCCCCCCCCCCCCC` [Glu(Pal)-L-Sph], in data set [3], the SDH worked out at 1690 ± 1680 IU/liter, the SGOT came to 410 ± 360 IU/liter and the SGPT is 1470 ± 1460 IU/liter. In addition, in data set [4], the “Area of surviving skin in mm^2” value was found to be 178.6 ± 16.8 mm^2, the “Area of the necrotic skin in mm^2” value was 85.8 ± 14.7 mm^2, the “Area of the skin flap” value was 264.4 ± 2.6 mm^2 and the “Area of surviving skin in %” value was found to be 67.3%. Also, in data set [4], the “Area of the necrotic skin in %” value amounted to 32.7% and the “Action of the compound in %” value is listed as “+55.8%”.

For `CCCCCCCCCCCCCC=CC(O)C(COC1OC(CO)C(O)C(O)C1O)NC(=O)CCCCCCCCCCCCCCC` [Gal(Pal)-D-Sph], in data set [3], the SDH is recorded as 2400 ± 2800 IU/liter, the SGOT stood at 1030 ± 1150 IU/liter and the SGPT is listed as 2990 ± 3510 IU/liter. In data set [4], the “Area of surviving skin in mm^2” value is given as 191.8 ± 18.9 mm^2, the “Area of the necrotic skin in mm^2” value is reported as 81.4 ± 18.5 mm^2, the “Area of the skin flap” value is on record as 273.3 ± 5.2 mm^2 and the “Area of surviving skin in %” value came out at 70.2%. Moreover, in data set [4], the “Area of the necrotic skin in %” value was determined as 29.8% and the “Action of the compound in %” value is “+31.2%”.
